Experimental data from paper PMC7076388 (Pharmaceutics, 2020).

Tests used:
[1] = biological target: T1, 26S proteasome isolated from AGS cells (Homo sapiens, UniProt P28074); test: 26S proteasome inhibition; type: biochemical
T1 construct: purified 26S proteasome isolated from AGS cells; endogenous in cells; host or cells: AGS cells
T1 sequence (P28074 60-263): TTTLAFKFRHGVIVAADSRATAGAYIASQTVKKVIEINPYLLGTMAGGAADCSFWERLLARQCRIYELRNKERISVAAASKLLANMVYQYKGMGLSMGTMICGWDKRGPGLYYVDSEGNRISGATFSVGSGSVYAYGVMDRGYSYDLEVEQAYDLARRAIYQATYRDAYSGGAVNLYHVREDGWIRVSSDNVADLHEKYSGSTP
Description: This assay was carried out in the same way as described for 20S proteasome (vide supra), except using purified 26S proteasome isolated from AGS cells. To extract 26S proteasome from cells, they were centrifuged at 1300 rpm for 3 min at 37 °C and the supernatant was rejected. The pellet was then resuspended in 5 mL of HBSS. After this step, the cells were centrifuged again under the conditions referred to above and the supernatant was rejected. Then, 1 mL of cell lysis buffer was added, before being placed in ice (4 °C) for 30 min. Subsequently, the mixture was centrifuged at 14,000 g during 30 min at 4 °C. The pellet was rejected, and the supernatant was kept in an Eppendorf tube. The quantity of protein isolated was determined by Bradford Assay.
A stock solution of bovine serum albumin (BSA) (1.0 mg/mL) was prepared in H2O. From the stock solution, six concentrations were prepared: 5%, 4%, 3%, 2%, 1% and 0% stock solution in H2O. An aliquot of each sample (40 µL) was added to a solution of the Bradford reagent (200 µL). After 5 min, the absorbance was measured at 595 nm and the calibration curve was plotted (correlation > 0.99). […] After 5 min, the absorbance was measured at 595 nm and the result was compared with the correlation curve in order to calculate the concentration of protein.

COX-1 = biological target: T2, COX-1 (Ovis aries, UniProt P05979); set-up: method as in PMID 30987203; details: 25 µM; cited from earlier work
T2 construct: purchased Cayman Chemical
T2 sequence (P05979 25-600): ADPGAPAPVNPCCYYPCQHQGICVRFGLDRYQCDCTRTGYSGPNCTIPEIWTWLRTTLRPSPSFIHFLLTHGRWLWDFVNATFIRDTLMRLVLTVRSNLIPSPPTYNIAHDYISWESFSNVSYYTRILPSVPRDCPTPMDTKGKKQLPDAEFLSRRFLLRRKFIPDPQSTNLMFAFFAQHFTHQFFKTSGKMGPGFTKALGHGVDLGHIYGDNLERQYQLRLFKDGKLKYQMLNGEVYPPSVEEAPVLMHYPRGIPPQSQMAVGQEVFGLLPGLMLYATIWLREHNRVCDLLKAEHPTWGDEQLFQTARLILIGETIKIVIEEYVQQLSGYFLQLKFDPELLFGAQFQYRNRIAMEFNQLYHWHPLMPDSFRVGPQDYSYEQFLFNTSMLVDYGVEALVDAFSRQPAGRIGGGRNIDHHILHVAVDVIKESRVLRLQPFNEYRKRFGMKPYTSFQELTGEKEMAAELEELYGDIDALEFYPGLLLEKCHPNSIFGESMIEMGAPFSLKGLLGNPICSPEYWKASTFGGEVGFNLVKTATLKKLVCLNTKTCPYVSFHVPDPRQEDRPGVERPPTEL

[2] = biological target: T3, LOX from glycine max (soybean) (Glycine max, UniProt P08170); test: Lipoxygenase glycine max (soybean) assay; type: biochemical; details: dose-response assay; read-out: IC50 for LOX inhibition
T3 construct: purchased Sigma-Aldrich
T3 sequence (P08170 1-839): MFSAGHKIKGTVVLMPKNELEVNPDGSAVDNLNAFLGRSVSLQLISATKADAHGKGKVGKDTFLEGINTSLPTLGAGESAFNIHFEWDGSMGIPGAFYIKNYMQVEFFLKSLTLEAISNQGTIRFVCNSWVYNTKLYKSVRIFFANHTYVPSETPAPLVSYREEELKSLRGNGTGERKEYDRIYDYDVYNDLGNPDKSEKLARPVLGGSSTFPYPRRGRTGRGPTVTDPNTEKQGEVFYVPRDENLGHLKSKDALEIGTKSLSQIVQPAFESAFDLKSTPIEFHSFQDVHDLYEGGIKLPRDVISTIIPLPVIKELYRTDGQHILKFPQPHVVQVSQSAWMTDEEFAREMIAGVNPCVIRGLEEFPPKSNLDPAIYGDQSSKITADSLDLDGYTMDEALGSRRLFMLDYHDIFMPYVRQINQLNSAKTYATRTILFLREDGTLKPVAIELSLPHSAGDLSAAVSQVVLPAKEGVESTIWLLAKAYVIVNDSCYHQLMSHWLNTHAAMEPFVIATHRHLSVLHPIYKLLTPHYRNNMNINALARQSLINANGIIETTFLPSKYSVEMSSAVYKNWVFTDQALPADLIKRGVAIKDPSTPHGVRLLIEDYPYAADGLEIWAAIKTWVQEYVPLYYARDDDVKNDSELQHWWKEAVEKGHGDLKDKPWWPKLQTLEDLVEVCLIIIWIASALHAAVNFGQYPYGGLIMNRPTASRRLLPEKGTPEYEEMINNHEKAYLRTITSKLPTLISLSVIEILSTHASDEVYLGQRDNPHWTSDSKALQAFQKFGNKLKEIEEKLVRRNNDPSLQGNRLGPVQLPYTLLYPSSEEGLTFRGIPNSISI
Description: The inhibitory effect on LOX was assessed in 96-well plates, using a modified version of a previously reported procedure from Pereira et al.. […] After 5 min pre-incubation at room temperature, the reaction was started by addition of linoleic acid substrate (20 µL of a 4.18 mM solution in ethanol). The reaction was monitored at 234 nm using a multiplate reader (Multiskan Thermo Fisher Scientific Oy, Vantaa, Finland), for 3 min.

[3] = test system: LPS-induced •NO production in RAW 264.7 cells; details: cited from earlier work

In the case of `COc1ccc2cc(C(C)C(=O)NC(Cc3ccc(O)cc3)C(=O)NC(=Cc3ccccc3)C(=O)O)ccc2c1` [Compound 1, Npx-L-Tyr-Z-ΔPhe-OH], the “26S proteasome activity versus control” value ([1]; 100 µM) is listed as 8.1%, the IC50 ([1]; dose-response assay) is listed as 18.6 µM and the “COX inhibition level (COX-1)” value (COX-1) is listed as “modest levels of COX inhibition”. For the same compound, the IC50 [2] was 54.1 µM, the “inhibition of LPS-induced production of •NO” value ([3]; preliminary study) was “modest ability to inhibit” and the IC50 ([3]; previously reported, read-out: IC50 (LPS-dependent •NO production)) was 79.3 µM.
